Assay results published in the supplement of paper PMC10307832.

Key:
Assay in all cases: relative viability (nuclei count vs DMSO), 5 days (fraction); higher = more cells survive
[1] = compound: Cc1ccc(C(=O)Nc2ccc(CN3CCN(C)CC3)c(C(F)(F)F)c2)cc1C#Cc1cnc2cccnn12 [Ponatinib] + Cc1nc(Nc2ncc(C(=O)Nc3c(C)cccc3Cl)s2)cc(N2CCN(CCO)CC2)n1 [Dasatinib] (partner 0.075 µM)
Method in brief: (§1)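 Lung cancer cell lines were pin-tool dosed in 1536-well plates on the day after seeding, with either a lone drug or a fixed anchor-drug dose plus five library-drug doses (not always all listed) in √10 steps. Nuclei were counted on 4× images after 5 days. Relative viability is the ratio of treated-well to vehicle-well nuclei counts, with each value a median of duplicate plates.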

[2] = compound: Cc1ccc(Nc2nccc(N(C)c3ccc4c(C)n(C)nc4c3)n2)cc1S(N)(=O)=O [Pazopanib] + CC(=O)Nc1cccc(-n2c(=O)n(C3CC3)c(=O)c3c(Nc4ccc(I)cc4F)n(C)c(=O)c(C)c32)c1 [Trametinib] (partner 0.02 µM)
Method in brief: as §1

[3] = compound: Cc1ccc(Nc2nccc(N(C)c3ccc4c(C)n(C)nc4c3)n2)cc1S(N)(=O)=O [Pazopanib] + COc1cc2c(Oc3ccc(NC(=O)C4(C(=O)Nc5ccc(F)cc5)CC4)cc3F)ccnc2cc1OCCCN1CCOCC1 [Foretinib] (partner 0.25 µM)
Method in brief: as §1

[4] = compound: Cc1ccc(Nc2nccc(N(C)c3ccc4c(C)n(C)nc4c3)n2)cc1S(N)(=O)=O [Pazopanib] + CS(=O)(=O)N1CCN(Cc2cc3nc(-c4cccc5[nH]ncc45)nc(N4CCOCC4)c3s2)CC1 [Pictilisib] (partner 1 µM)
Method in brief: as §1

Row | Cell Line | relative viability ([1]; first compound 0.002 µM) | relative viability ([1]; first compound 0.006325 µM) | relative viability ([1]; first compound 0.06325 µM) | relative viability ([1]; first compound 0.2 µM) | relative viability ([2]; first compound 0.01 µM) | relative viability ([2]; first compound 0.03162 µM) | relative viability ([2]; first compound 0.1 µM) | relative viability ([2]; first compound 0.3162 µM) | relative viability ([2]; first compound 1 µM) | relative viability ([3]; first compound 0.1 µM) | relative viability ([3]; first compound 0.3162 µM) | relative viability ([3]; first compound 1 µM) | relative viability ([4]; first compound 0.01 µM) | relative viability ([4]; first compound 0.03162 µM) | relative viability ([4]; first compound 0.1 µM) | relative viability ([4]; first compound 0.3162 µM) | relative viability ([4]; first compound 1 µM) | relative viability ([3]; first compound 0.01 µM) | relative viability ([3]; first compound 0.03162 µM)
1 | NCI-H2347 | 0.302 | 0.301 | 0.404 | 0.362 | 0.211 | 0.281 | 0.303 | 0.282 | 0.281 | 0.934 | 1.21 | 0.843 | 0.513 | 0.648 | 0.417 | 0.601 | 0.548 | – | –
2 | LU99A | 0.498 | 0.664 | 0.498 | 0.462 | – | 0.622 | 0.632 | 0.597 | 0.595 | 0.878 | 0.864 | 0.837 | 0.241 | 0.374 | 0.356 | 0.35 | 0.35 | 0.772 | 0.906
3 | NCI-H1355 | 0.651 | 0.714 | 0.81 | 0.668 | 0.363 | 0.409 | 0.397 | 0.446 | 0.534 | 1.08 | 0.979 | 1 | – | 0.412 | 0.421 | 0.508 | 0.638 | 0.804 | 1
4 | HCC-78 | 0.33 | 0.35 | 0.296 | 0.382 | – | 0.864 | 0.721 | 0.804 | 1.06 | 0.524 | 0.638 | 0.701 | 0.2 | 0.216 | 0.194 | 0.214 | 0.202 | 0.523 | 0.553
5 | NCI-H1563 | 0.473 | 0.506 | 0.447 | 0.434 | – | – | – | – | – | 1.04 | 0.969 | 1.08 | 0.664 | 0.637 | 0.697 | 0.667 | 0.627 | 0.823 | 0.966
6 | HCC-15 | 0.585 | 0.61 | 0.828 | 0.61 | 0.326 | 0.338 | 0.382 | 0.417 | 0.406 | 1.16 | 1.01 | 1.08 | 0.703 | 0.773 | 0.718 | 0.857 | 1.06 | 0.999 | 1.01
7 | EKVX | 0.56 | 0.624 | 0.502 | 0.483 | 0.337 | 0.349 | 0.267 | 0.318 | 0.449 | 0.62 | 0.901 | 0.942 | 0.411 | 0.402 | 0.415 | 0.507 | 0.517 | 0.961 | 0.866
8 | NCI-H2087 | 0.83 | 0.743 | 0.798 | 0.525 | 0.223 | 0.261 | 0.192 | 0.174 | 0.242 | 1.03 | 1.13 | 0.796 | 0.784 | 0.951 | 0.85 | 0.963 | 1.01 | 1.27 | 0.966
9 | LK-2 | – | 0.268 | 0.196 | 0.158 | 0.643 | 0.788 | 0.562 | 0.565 | 0.755 | 1.07 | 1.11 | 1.01 | 0.508 | 0.724 | 0.729 | 0.558 | 0.496 | – | 1.2
